From PMC4854315, “Discovery of a novel allosteric inhibitor-binding site in ERK5: comparison with the canonical kinase hinge ATP-binding site” (Acta Crystallographica. Section D, Structural Biology, 2016)

Key:
Test in all cases: Z'-LYTE kinase panel
Type in all cases: biochemical
[1] = biological target: T1, FGFR4 (Homo sapiens, UniProt P22455)
T1 construct: purchased ThermoFisher (SelectScreen, Z'-LYTE)
Method in brief: (§1)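 Each compound was added at 10 µM, kinase activity was then measured via the standard Z′-LYTE assay, and percentage inhibition was calculated; 225 kinases were covered.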

[2] = biological target: T2, PRKCE (PKC epsilon) (Homo sapiens, UniProt Q02156)
T2 construct: purchased ThermoFisher (SelectScreen, Z'-LYTE)
T2 sequence (Q02156 1-737): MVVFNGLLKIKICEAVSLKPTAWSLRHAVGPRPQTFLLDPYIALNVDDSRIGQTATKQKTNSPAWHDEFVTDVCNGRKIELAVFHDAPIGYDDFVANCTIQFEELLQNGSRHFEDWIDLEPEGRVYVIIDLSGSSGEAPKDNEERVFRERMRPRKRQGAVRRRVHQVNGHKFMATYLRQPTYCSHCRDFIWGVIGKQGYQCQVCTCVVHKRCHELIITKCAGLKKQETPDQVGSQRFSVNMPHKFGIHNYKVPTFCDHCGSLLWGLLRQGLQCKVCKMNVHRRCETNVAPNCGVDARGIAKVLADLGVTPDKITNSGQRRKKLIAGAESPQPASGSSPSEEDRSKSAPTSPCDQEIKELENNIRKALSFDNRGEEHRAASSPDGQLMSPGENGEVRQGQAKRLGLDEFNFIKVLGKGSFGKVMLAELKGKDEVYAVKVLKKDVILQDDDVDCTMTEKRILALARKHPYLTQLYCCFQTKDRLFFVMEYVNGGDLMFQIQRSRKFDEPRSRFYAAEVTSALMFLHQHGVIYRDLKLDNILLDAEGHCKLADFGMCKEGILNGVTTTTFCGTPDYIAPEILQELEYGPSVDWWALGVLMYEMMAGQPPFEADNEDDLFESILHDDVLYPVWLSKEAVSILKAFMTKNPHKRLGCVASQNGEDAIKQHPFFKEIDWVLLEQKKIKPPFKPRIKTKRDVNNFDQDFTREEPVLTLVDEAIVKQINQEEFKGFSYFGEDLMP
Method in brief: as §1

[3] = biological target: T3, PRKCB2 (PKC beta II) (Homo sapiens, UniProt P05771)
T3 construct: purchased ThermoFisher (SelectScreen, Z'-LYTE)
Method in brief: as §1

[4] = biological target: T4, NEK2 (Homo sapiens, UniProt P51955)
T4 construct: purchased ThermoFisher (SelectScreen, Z'-LYTE)
T4 sequence (P51955 1-445): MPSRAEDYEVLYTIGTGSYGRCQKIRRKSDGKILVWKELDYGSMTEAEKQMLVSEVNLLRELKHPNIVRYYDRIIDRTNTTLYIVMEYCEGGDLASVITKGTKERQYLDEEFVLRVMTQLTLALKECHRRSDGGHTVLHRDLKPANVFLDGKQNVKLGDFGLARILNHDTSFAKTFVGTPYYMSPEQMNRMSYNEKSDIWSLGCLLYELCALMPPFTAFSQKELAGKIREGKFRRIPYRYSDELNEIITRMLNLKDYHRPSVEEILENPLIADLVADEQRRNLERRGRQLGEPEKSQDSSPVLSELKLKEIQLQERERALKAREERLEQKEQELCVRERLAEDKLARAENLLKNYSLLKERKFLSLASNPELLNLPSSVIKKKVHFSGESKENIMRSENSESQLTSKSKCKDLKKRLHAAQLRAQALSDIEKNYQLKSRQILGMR
Method in brief: as §1

[5] = biological target: T5, FER (Homo sapiens, UniProt P16591)
T5 construct: purchased ThermoFisher (SelectScreen, Z'-LYTE)
Method in brief: as §1

[6] = biological target: T6, PAK1 (Homo sapiens, UniProt Q13153)
T6 construct: purchased ThermoFisher (SelectScreen, Z'-LYTE)
Method in brief: as §1

[7] = biological target: T7, SGK2 (Homo sapiens, UniProt Q9HBY8)
T7 construct: purchased ThermoFisher (SelectScreen, Z'-LYTE)
T7 sequence (Q9HBY8 1-367): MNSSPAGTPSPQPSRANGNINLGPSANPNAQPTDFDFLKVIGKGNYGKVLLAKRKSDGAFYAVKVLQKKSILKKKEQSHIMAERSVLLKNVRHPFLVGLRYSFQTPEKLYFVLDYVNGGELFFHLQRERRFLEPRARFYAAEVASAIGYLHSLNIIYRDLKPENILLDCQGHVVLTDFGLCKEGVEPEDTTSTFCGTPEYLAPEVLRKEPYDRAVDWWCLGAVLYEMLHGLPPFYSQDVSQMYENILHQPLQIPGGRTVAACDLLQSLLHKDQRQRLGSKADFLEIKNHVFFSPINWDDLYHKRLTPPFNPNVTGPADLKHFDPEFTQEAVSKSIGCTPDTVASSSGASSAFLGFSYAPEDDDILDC
Method in brief: as §1

[8] = biological target: T8, MARK2 (Homo sapiens, UniProt Q7KZI7)
T8 construct: purchased ThermoFisher (SelectScreen, Z'-LYTE)
Method in brief: as §1

[9] = biological target: T9, PRKCD (PKC delta) (Homo sapiens, UniProt Q05655)
T9 construct: purchased ThermoFisher (SelectScreen, Z'-LYTE)
Method in brief: as §1

[10] = biological target: T10, GSK3A (GSK3 alpha) (Homo sapiens, UniProt P49840); conditions: 10 µM compound, ATP Km app
T10 construct: purchased ThermoFisher (SelectScreen, Z'-LYTE)
Method in brief: as §1

[11] = biological target: T11, DNA-PK (Homo sapiens, UniProt P78527)
T11 construct: purchased ThermoFisher (SelectScreen, Z'-LYTE)
Method in brief: as §1

[12] = biological target: T12, ZAP70 (Homo sapiens, UniProt P43403)
T12 construct: purchased ThermoFisher (SelectScreen, Z'-LYTE)
T12 sequence (P43403 1-619): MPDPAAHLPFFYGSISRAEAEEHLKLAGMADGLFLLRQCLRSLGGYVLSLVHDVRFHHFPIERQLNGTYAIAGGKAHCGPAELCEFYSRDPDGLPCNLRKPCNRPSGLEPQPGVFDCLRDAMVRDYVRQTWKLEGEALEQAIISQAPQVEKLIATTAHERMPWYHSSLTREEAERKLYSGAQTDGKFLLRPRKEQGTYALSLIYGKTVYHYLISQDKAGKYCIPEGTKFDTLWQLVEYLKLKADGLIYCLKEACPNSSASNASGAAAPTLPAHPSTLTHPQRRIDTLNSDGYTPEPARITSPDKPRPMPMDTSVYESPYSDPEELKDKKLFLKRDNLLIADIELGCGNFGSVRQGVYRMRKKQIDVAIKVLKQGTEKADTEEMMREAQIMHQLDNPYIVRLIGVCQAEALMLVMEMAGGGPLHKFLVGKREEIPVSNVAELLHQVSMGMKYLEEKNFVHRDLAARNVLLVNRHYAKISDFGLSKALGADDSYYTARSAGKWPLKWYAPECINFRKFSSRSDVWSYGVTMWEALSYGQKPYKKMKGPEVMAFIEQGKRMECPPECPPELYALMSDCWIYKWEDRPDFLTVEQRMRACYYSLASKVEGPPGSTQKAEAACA
Method in brief: as §1

[13] = biological target: T13, CDK2/cyclin A (Homo sapiens, UniProt P24941)
T13 construct: purchased ThermoFisher (SelectScreen, Z'-LYTE)
Method in brief: as §1

T10 sequence (P49840 whole entry): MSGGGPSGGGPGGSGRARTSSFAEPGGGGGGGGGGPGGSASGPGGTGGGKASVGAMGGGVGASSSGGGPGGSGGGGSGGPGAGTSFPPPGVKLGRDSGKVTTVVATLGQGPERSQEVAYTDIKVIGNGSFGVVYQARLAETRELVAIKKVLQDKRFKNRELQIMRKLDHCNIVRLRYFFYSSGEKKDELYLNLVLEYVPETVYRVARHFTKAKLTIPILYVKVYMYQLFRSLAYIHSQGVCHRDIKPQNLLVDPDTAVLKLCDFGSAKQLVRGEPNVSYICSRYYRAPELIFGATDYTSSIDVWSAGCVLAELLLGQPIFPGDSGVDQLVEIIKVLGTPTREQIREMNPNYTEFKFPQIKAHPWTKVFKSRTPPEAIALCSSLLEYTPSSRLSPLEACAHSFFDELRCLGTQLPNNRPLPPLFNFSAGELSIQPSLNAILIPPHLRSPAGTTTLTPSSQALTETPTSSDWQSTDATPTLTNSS
T1 sequence (P22455 22-802): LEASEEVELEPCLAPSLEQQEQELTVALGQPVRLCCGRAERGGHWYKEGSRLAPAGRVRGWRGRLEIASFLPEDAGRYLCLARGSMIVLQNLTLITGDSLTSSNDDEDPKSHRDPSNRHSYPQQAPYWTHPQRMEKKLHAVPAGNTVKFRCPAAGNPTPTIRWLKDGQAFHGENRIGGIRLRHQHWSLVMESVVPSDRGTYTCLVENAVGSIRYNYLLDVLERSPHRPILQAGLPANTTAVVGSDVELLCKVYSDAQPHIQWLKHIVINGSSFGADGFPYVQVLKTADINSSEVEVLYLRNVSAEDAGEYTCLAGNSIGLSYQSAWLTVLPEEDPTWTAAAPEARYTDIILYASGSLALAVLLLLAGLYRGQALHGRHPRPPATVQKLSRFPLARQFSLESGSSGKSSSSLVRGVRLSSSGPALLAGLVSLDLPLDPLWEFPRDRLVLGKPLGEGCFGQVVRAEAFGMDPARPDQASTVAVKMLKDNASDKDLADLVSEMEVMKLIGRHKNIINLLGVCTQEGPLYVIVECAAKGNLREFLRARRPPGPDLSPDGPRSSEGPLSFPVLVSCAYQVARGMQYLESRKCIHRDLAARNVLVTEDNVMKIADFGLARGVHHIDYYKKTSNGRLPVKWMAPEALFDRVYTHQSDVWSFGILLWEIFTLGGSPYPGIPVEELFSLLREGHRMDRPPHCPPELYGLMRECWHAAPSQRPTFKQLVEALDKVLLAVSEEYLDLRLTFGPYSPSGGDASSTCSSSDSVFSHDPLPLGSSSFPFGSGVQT
T8 sequence (Q7KZI7 whole entry): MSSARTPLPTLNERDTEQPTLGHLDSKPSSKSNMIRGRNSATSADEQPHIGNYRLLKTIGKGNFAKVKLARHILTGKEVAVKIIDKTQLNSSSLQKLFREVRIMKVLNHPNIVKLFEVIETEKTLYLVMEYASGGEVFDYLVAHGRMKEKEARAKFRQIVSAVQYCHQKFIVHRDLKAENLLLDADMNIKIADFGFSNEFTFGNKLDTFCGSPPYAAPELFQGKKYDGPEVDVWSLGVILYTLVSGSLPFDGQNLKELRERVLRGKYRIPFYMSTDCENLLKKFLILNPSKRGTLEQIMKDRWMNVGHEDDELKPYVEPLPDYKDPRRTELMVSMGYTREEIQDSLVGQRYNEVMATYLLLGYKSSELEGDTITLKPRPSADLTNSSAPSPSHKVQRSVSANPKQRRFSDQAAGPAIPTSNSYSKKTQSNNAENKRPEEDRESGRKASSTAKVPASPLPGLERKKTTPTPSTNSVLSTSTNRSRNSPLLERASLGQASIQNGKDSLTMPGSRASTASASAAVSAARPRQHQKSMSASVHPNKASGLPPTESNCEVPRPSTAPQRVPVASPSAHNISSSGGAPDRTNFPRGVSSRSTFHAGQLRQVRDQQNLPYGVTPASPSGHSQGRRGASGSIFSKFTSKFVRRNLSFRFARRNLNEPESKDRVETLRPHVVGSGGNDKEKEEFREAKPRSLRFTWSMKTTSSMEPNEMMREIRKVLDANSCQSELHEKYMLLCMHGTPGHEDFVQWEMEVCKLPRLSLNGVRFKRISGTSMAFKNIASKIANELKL
T3 sequence (P05771 1-673 isoform P05771-2): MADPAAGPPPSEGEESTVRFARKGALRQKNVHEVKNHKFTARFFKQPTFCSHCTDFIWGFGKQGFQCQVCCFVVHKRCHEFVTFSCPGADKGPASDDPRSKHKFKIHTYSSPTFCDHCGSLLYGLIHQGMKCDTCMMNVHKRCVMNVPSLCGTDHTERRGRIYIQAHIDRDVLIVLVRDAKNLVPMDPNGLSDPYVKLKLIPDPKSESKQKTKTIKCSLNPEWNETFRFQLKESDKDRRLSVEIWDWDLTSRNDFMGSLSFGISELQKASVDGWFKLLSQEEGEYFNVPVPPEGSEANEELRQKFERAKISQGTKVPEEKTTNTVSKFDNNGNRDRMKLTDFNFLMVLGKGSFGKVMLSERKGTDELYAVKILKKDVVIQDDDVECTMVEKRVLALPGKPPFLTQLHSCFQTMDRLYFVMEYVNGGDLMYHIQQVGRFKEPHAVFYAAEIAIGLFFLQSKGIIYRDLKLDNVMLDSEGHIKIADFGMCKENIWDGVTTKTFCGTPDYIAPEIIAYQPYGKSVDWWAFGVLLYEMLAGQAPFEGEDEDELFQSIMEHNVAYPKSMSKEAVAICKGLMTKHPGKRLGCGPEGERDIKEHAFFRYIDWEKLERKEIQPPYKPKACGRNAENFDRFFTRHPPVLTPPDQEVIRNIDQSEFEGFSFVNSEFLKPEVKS
T5 sequence (P16591 whole entry): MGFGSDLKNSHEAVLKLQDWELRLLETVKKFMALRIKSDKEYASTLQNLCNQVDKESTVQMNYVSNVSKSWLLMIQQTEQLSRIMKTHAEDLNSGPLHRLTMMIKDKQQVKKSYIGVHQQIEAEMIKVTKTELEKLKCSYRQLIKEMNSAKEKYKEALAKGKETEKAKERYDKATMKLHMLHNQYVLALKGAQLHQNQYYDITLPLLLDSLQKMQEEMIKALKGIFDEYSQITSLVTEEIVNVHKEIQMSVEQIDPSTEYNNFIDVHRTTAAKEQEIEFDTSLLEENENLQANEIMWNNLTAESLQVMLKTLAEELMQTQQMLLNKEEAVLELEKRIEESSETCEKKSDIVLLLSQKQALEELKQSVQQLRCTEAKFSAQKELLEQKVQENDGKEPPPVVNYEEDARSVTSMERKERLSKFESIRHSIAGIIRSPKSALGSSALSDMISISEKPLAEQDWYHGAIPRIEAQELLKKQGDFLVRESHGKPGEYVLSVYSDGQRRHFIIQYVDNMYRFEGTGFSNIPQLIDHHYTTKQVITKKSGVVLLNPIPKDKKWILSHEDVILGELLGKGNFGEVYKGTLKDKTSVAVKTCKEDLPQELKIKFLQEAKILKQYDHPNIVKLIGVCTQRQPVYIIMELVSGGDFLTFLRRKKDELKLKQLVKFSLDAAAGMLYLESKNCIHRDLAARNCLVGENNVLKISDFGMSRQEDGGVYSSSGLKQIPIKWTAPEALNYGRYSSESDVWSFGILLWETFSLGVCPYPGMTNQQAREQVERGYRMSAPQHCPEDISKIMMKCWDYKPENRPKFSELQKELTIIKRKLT
T6 sequence (Q13153 whole entry): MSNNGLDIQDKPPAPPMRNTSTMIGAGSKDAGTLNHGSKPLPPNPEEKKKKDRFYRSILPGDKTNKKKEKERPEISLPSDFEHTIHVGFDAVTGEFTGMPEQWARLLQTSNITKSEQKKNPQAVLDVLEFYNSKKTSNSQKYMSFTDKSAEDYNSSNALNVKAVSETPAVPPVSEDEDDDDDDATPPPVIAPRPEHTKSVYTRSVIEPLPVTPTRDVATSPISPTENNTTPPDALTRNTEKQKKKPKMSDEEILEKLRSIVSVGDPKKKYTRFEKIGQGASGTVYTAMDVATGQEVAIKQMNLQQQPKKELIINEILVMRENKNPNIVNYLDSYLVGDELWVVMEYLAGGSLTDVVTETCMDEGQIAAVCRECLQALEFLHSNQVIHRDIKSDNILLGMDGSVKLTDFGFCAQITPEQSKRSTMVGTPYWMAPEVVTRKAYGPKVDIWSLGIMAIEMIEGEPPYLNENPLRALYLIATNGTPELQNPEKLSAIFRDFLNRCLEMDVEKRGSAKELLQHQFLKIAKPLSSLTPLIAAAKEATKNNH
T9 sequence (Q05655 whole entry): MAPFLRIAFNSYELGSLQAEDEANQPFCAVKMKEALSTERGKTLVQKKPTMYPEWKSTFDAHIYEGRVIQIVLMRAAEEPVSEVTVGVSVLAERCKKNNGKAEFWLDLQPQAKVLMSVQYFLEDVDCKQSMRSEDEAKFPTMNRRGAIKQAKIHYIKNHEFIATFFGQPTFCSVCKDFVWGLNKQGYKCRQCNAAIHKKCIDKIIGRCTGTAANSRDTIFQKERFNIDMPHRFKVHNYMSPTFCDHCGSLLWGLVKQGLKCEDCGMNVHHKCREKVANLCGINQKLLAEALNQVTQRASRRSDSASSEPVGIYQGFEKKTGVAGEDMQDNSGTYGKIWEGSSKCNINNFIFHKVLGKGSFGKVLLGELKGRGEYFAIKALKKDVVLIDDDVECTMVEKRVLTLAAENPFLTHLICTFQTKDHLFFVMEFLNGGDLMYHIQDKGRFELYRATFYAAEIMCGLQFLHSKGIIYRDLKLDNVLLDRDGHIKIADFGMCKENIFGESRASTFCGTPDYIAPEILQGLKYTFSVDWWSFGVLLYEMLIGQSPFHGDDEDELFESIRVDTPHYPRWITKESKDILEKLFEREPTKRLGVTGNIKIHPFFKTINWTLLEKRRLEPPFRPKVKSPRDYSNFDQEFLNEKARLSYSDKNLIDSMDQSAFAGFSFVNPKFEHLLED

Cc1cc(Nc2nc(N)nn2C(=O)NC(C)C)ccc1Cl [Compound 5]
inhibition at 10 µM [1]: 10% | inhibition at 10 µM [2]: -17% | inhibition at 10 µM [3]: -12% | inhibition at 10 µM [4]: -3% | inhibition at 10 µM [5]: 22% | inhibition at 10 µM [6]: -12% | inhibition at 10 µM [7]: -20% | inhibition at 10 µM [8]: 24% | inhibition at 10 µM [9]: 1.15% | inhibition at 10 µM [10]: > 80% | GSK3A (GSK3 alpha) % Inhibition ([10]; listed as SN1109056190, 10 µM): 82% | inhibition at 10 µM [11]: 13% | inhibition at 10 µM [12]: 12% | inhibition at 10 µM [13]: 56%

Cc1ncc(-c2nc(Nc3ccc(C(=O)NCCN4CCCCC4)cc3)ncc2F)n1C(C)C [Compound 3]
inhibition at 10 µM [1]: 19% | inhibition at 10 µM [2]: 45% | inhibition at 10 µM [3]: 89% | inhibition at 10 µM [4]: -7.52% | inhibition at 10 µM [5]: 105% | inhibition at 10 µM [6]: 51% | inhibition at 10 µM [7]: 66% | inhibition at 10 µM [8]: 89% | inhibition at 10 µM [9]: 97% | inhibition at 10 µM [10]: 98% | inhibition at 10 µM [11]: 33% | inhibition at 10 µM [12]: 19% | inhibition at 10 µM [13]: 101%

XMD8-92 [Compound 2, reference compound]
FGFR4 % Inhibition ([1]; 10 µM compound, ATP Km app): 19% | PRKCE (PKC epsilon) % Inhibition ([2]; 10 µM compound, ATP Km app): 1.55% | PRKCB2 (PKC beta II) % Inhibition ([3]; 10 µM compound, ATP Km app): 38% | NEK2 % Inhibition ([4]; 10 µM compound, ATP Km app): -17% | FER % Inhibition ([5]; 10 µM compound, ATP Km app): 79% | PAK1 % Inhibition ([6]; 10 µM compound, ATP Km app): 8% | SGK2 % Inhibition ([7]; 10 µM compound, ATP Km app): 68% | MARK2 % Inhibition ([8]; 10 µM compound, ATP Km app): 9% | PRKCD (PKC delta) % Inhibition ([9]; 10 µM compound, ATP Km app): -3.55% | GSK3A (GSK3 alpha) % Inhibition [10]: 35% | DNA-PK % Inhibition ([11]; 10 µM compound, ATP Km app): 38% | ZAP70 % Inhibition ([12]; 10 µM compound, ATP Km app): 12% | CDK2/cyclin A % Inhibition ([13]; 10 µM compound, ATP Km app): 20%
